Test results: patent US20230091225A1, “Bifunctional chimeric heterocyclic compounds for targeted degradation of androgen receptors and use thereof” (HINOVA PHARMACEUTICALS INC., priority 2019, published 2023)
Read-outs that look alike come from different tables or passages of the source.

Legend:
LNCaP/AR cells = assay: Inhibition of proliferation of LNCaP/AR prostate cancer cells (CCK-8); assay type: cell-based
androgen receptor (AR) = molecular target: T1, androgen receptor (AR) (Homo sapiens, UniProt P10275); assay: Degradation of androgen receptor (AR) protein in VCaP cells by ELISA; assay type: cell-based; conditions: for inhibition at 0.1 µM: read-out: % degradation
T1 sequence (P10275 1-920): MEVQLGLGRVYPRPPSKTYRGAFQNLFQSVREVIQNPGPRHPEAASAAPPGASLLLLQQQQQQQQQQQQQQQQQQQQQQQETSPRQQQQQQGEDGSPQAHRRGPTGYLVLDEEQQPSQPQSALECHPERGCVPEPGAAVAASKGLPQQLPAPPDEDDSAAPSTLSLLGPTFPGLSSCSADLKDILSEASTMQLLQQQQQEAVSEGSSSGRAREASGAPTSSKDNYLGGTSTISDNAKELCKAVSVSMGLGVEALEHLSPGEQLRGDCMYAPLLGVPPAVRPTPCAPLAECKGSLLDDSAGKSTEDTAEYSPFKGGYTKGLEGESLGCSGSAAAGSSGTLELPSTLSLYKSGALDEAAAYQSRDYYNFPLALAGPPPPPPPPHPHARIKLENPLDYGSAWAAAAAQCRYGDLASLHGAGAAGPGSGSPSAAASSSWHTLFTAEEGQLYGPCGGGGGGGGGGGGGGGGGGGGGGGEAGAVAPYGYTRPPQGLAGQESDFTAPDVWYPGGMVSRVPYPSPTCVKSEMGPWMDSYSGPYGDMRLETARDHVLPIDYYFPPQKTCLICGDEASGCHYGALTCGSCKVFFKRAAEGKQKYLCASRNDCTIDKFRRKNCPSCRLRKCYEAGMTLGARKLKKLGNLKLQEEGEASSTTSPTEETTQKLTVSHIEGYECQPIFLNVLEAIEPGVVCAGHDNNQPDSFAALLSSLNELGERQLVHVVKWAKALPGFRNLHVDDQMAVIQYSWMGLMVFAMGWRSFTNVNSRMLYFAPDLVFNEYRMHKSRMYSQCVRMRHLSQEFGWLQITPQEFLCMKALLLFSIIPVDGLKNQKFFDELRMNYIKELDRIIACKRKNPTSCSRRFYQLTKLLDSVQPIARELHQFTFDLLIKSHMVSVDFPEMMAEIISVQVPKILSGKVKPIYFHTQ

[1] = percentage of degraded AR at 100 nM, VCaP cells, 16 h, ELISA
[2] = 144 h, proliferation of LNCap/AR cells, 6 days, CCK-8, read-out: IC50
[3] = proliferation of LNCap/AR cells, 6 days, CCK-8, read-out: IC50

| Compound | inhibition at 0.1 µM (androgen receptor (AR); [1]) | IC50 (LNCaP/AR cells; [2]) | further results |
| --- | --- | --- | --- |
| CC(=O)O[C@@H]1C[C@@H](C(=O)N[C@@H](CO)c2ccc(-c3scnc3C)cc2)N(C(=O)[C@@H](NC(=O)COCCCCC#Cc2ccc3c(c2)CN([C@H]2C(C)(C)[C@H](Oc4ccc(C#N)c(Cl)c4)C2(C)C)C3=O)C(C)(C)C)C1 [Compound 49, (3R,5S)-1-((S)-2-(2-((6-(2-(((1r,3r)-3-(3-chloro-4-cyanophenoxy))-2,2,4,4-tetramethylcyclobutyl)-1-oxoisoindolin-5-yl)hex-5-yn-1-yl)oxy)acetamido)-3,3-dimethylbutyryl)-5-(((R)-2-hydroxy-1-(4-(4-methylthiazol-5-yl)phenyl)ethyl)carbamoyl)pyrrolidin-3-yl acetate] | 25 to 49% | – | IC50 (LNCaP/AR cells; LNCaP/AR, 144 h): < 100 nM |
| CC1(C)[C@H](Oc2ccc(C#N)c(Cl)c2)C(C)(C)[C@H]1N1Cc2cc(C#CC3CCN(C4CCN(c5cc6c(cc5F)C(=O)N(C5CCC(=O)NC5=O)C6=O)CC4)CC3)ccc2C1=O (stereo partly shown) [Compound 51] | 50 to 79% | 100 to 500 nM | – |
| N#Cc1ccc(O[C@H]2CC[C@H](N3Cc4nc(N5CC[C@@H](CN6CCN(c7cc8c(cc7F)CN(C7CCC(=O)NC7=O)C8=O)CC6)C5)ccc4C3=O)CC2)cc1Cl (stereo partly shown) [Compound 54] | 25 to 49% | > 1000 nM | – |
| N#Cc1ccc(O[C@H]2CC[C@H](N3Cc4nc(N5CC[C@@H](CN6CCN(c7cc8c(cc7F)C(=O)N(C7CCC(=O)NC7=O)C8)CC6)C5)ccc4C3=O)CC2)cc1Cl (stereo partly shown) [Compound 55] | 25 to 49% | 100 to 500 nM | – |
| N#Cc1ccc(O[C@H]2CC[C@H](N3Cc4nc(N5CCC(CN6CCN(c7ccc8c(c7)C(=O)N(C7CCC(=O)NC7=O)C8=O)CC6)CC5)ccc4C3=O)CC2)cc1Cl (stereo partly shown) [Compound 57] | – | – | IC50 (LNCaP/AR cells): > 1000 nM; % degradation (androgen receptor (AR)): D (key: A: >80%; B: 79%-50%; C: 49%-25%; D: <25%) |
| N#Cc1ccc(O[C@H]2CC[C@H](N3Cc4nc(N5CCC(OC6CCN(c7ccc8c(c7)C(=O)N(C7CCC(=O)NC7=O)C8=O)CC6)CC5)ccc4C3=O)CC2)cc1Cl (stereo partly shown) [Compound 60, 2-chloro-4-(((1r,4r)-4-(2-(4-((1-(2-(2,6-dioxopiperidin-3-yl)-1,3-dioxoisoindolin-5-yl)piperidine-4-yl)oxy)piperidin-1-yl)-5-oxo-5H-pyrrolo[3,4-b]pyridin-6(7H)-yl)cyclohexyl)oxy)benzonitrile] | < 25% | > 1000 nM | – |
| CC1(C)[C@H](Oc2ccc(C#N)c(Cl)c2)C(C)(C)[C@H]1N1Cc2nc(N3CCC(CN4CCN(c5cc6c(cc5F)C(=O)N(C5CCC(=O)NC5=O)C6=O)CC4)CC3)ccc2C1=O (stereo partly shown) [Compound 198] | 50 to 79% | 100 to 500 nM | – |
| CC(C#Cc1ccc2c(c1)CN(C1C(C)(C)C(Oc3ccc(C#N)c(Cl)c3)C1(C)C)C2=O)N1CCN(c2cc3c(cc2F)C(=O)N(C2CCC(=O)NC2=O)C3=O)CC1 (stereo not shown) [Compound 199, 2-chloro-4-((1r,3r)-3-(5-(4-(2,6-dioxopiperidin-3-yl)-6-fluoro-1,3-dioxoisoindolin-5-yl)piperazin-1-yl)but-1-yn-1-yl)-1-oxoisoindolin-2-yl)-2,4,4-tetramethylcyclobutoxy)benzonitrile] | – | – | IC50 (LNCaP/AR cells; [3]): > 1000 nM; % degradation (androgen receptor (AR); [1]): D (<25%) |
| N#Cc1ccc(O[C@H]2CC[C@H](N3Cc4nc(N5CCC(CN6CCN(c7cc8c(cc7F)C(=O)N(C7CCC(=O)NC7=O)C8=O)CC6)CC5)ccc4C3=O)CC2)cc1Cl (stereo partly shown) [Compound 200] | – | > 1000 nM | inhibition at 0.1 µM (androgen receptor (AR); VCaP, 16 h): 50 to 79% |
| N#Cc1ccc(O[C@H]2CC[C@H](N3Cc4nc(N5CCC(CN6CCN(c7ccc8c(c7)C(=O)N(C7CCC(=O)NC7=O)C8=O)CC6)CC5)ccc4C3=O)CC2)cc1Cl (stereo partly shown) [Compound 201] | 50 to 79% | > 1000 nM | – |
| N#Cc1ccc(O[C@H]2CC[C@H](N3Cc4nc(N5CCC(CN6CCN(c7cc8c(cc7F)CN(C7CCC(=O)NC7=O)C8=O)CC6)CC5)ccc4C3=O)CC2)cc1Cl (stereo partly shown) [Compound 203] | < 25% | > 1000 nM | – |
| N#Cc1ccc(O[C@H]2CC[C@H](N3Cc4nc(N5CCC(CN6CCN(c7cc8c(cc7F)C(=O)N(C7CCC(=O)NC7=O)C8)CC6)CC5)ccc4C3=O)CC2)cc1Cl (stereo partly shown) [Compound 204] | 50 to 79% | < 100 nM | – |
| N#Cc1ccc(O[C@H]2CC[C@H](N3Cc4nc(N5CCN(CC6CCN(c7cc8c(cc7F)C(=O)N(C7CCC(=O)NC7=O)C8=O)CC6)CC5)ccc4C3=O)CC2)cc1Cl (stereo partly shown) [Compound 210] | < 25% | > 1000 nM | – |
| CC1(C)[C@H](NC(=O)c2ccc(N3CCC(CN4CCN(c5cc6c(cc5F)C(=O)N(C5CCC(=O)NC5=O)C6)CC4)CC3)nc2)C(C)(C)[C@H]1Oc1ccc(C#N)c(Cl)c1 (stereo partly shown) [Compound 213] | 25 to 49% | > 1000 nM | – |
| [2H]C([2H])([2H])N(C(=O)c1ccc(N2CCC(CN3CCN(c4cc5c(cc4F)CN(C4CCC(=O)NC4=O)C5=O)CC3)CC2)nc1)[C@H]1C(C)(C)[C@H](Oc2ccc(C#N)c(Cl)c2)C1(C)C (stereo partly shown) [Compound 215, N-((1r,3r)-3-(3-chloro-4-cyanophenoxy)-2,2,4,4-tetramethylcyclobutyl)-6-(4-((4-(2-(2,6-dioxopiperidin-3-yl)-6-fluoro-3-oxoisoindolin-5-yl)piperazin-1-yl)methyl)piperidin-1-yl)-N-(methyl-d3)nicotinamide] | < 25% | > 1000 nM | – |
| [2H]C([2H])([2H])N(C(=O)c1ccc(N2CCC(CN3CCN(c4cc5c(cc4F)C(=O)N(C4CCC(=O)NC4=O)C5)CC3)CC2)nc1)[C@H]1C(C)(C)[C@H](Oc2ccc(C#N)c(Cl)c2)C1(C)C (stereo partly shown) [Compound 216, N-((1r,3r)-3-(3-chloro-4-cyanophenoxy)-2,2,4,4-tetramethylcyclobutyl)-6-(4-((4-(2-(2,6-dioxopiperidin-3-yl)-6-fluoro-1-oxoisoindolin-5-yl)piperazin-1-yl)methyl)piperidin-1-yl)-N-(methyl-d3)nicotinamide] | > 80% | 100 to 500 nM | – |
| N#Cc1ccc(O[C@H]2CC[C@H](N3Cc4nc(N5CCC(CN6CCN(c7cccc8c7C(=O)N(C7CCC(=O)NC7=O)C8=O)CC6)CC5)ccc4C3=O)CC2)cc1Cl (stereo partly shown) [Compound 217] | < 25% | > 1000 nM | – |
| (2R,4R)-1-((S)-2-(2-((5-((2-((1r,3r)-3-(4-cyano-3-(trifluoromethyl) phenoxy)-2,2,4,4-tetramethylcyclobutyl)-1-oxoisoindolin-5-yl)amino)phenyl)oxy) acetylamino)-3,3-dimethylbutyryl)-4-hydroxy-N-((R)-1-(4-(4-methylthiazol-5-yl)phenyl)ethyl)pyrrole-2-formamide [Compound 16] | – | – | IC50 (LNCaP/AR cells; [3]): < 100 nM; % degradation (androgen receptor (AR)): C (key: A: >80%; B: 79%-50%; C: 49%-25%; D: <25%) |
| (2R,4R)-1-((S)-2-(2-((6-(2-((1R,3R)-3-(3-chloro-4-cyanophenoxy)-2,2,4,4-tetramethylcyclobutyl)-3-oxoisoindolin-5-yl)hex-5-yn-1-yl)oxy)acetylamino)-3,3-dimethylbutyryl)-4-hydroxy-N-((S)-1-(4-(4-methylthiazol-5-yl)phenyl)ethyl) pyrrolidine-2-carboxamide [Compound 5] | – | – | IC50 (LNCaP/AR cells; [3]): < 100 nM; % degradation (androgen receptor (AR); [1]): C (49%-25%) |
| (2S,4R)-1-((S)-2-(2-(4-(3-(2((1s,3s)-3-(3-chloro-4-cyanophenoxy)-2,2,4,4-tetramethylcyclobutyl)-1-oxoisoindolin-5-yl)prop-2-yn-1-yl)piperidin-1-yl)acetylamino)-3,3-dimethylbutyryl)-4-hydroxy-N-((S)-1-(4-(4-methylthiazol-5-yl)phenyl)ethyl)pyrrolidine-2-carboxamide [Compound 39] | – | – | IC50 (LNCaP/AR cells; [3]): < 100 nM; % degradation (androgen receptor (AR)): C (key: A: >80%; B: 79%-50%; C: 49%-25%; D: <25%) |
